# Experimental data as given in publication PMC6283615, “Anilinoquinoline based inhibitors of trypanosomatid proliferation” (PLoS Neglected Tropical Diseases, 2018).
# Entries after “also recorded” stand apart in the source; their conditions may differ.
# Assays:
# [1] = Human liver microsome intrinsic clearance; assay type: in vitro ADME
# T. brucei brucei CA427 = test: Murine model of acute HAT (T. b. brucei infected mice); assay type: in vivo
# Procedure: Bloodstream form (BSF) T. brucei brucei CA427 parasites were maintained at densities below 1×10^6 cells/mL in HMI-9 media supplemented with 10% fetal bovine serum (Atlanta Biologicals), 10% SERUM PLUS (Sigma), and 1% Antibiotic-Antimycotic Solution (Corning cellgro) at 37°C, 5% CO2 [18]. Parasites were centrifuged at 5000 xg for 3 min at room temperature and resuspended in cold 1xPBS containing 1% glucose to yield a solution of 2.5×10^6 cells/mL. Correct cell density following resuspension was confirmed using a Z2 Coulter Counter (Beckman). Parasite viability was observed by motility with a Neubauer Bright-line hemocytometer. Cells were kept on ice until infection.
# Compound 14 –on day 0, female Swiss-Webster mice (8–10 weeks old, 20–25 g, n = 4 per group) (Harlan) were infected i.p. with 2.5×10^5 trypanosomes by injecting 100 μL of resuspension using 26G needles. Day 1 to 3 post-infection, mice received a single i.p. dose of either drug vehicle (dimethylsulfoxide, 3.4 mL/kg) (Fisher Scientific) or drug (14, 25 mg/kg). Parasitemia was determined on days 2 and 3 post-infection by collecting 3 μL of blood from the tail vein.
# Day 1 to 3 post-infection, mice received a single p.o. dose of either drug vehicle (10% NMP and 90% PEG, 10 mL/kg) (Fisher Scientific) or drug (22, 60 mg/kg). From days 4 to 6, the dose was increased to 70 mg/kg for the mice in the treatment group. Parasitemia was determined on days 3 to 6 post-infection by collecting 3 μL of blood from the tail vein.
# Blood samples were mixed with 21 μL of RBC Lysis Solution (Qiagen) and incubated at room temperature for 15–45 min prior to observing for parasites by hemocytometer. Humane euthanasia by CO2 overdose followed by incision to form a bilateral pneumothorax was conducted on mice at study termination. All animal experimental protocols were approved and performed in accordance with the guidelines of the Institutional Animal Care and Use Committee (IACUC) at the University of Georgia.
# Aqueous solubility = assay type: physicochemical
# LogD7.4 = assay type: physicochemical; details: pH 7.4
# L. major amastigote = test: L. major intracellular amastigote luciferase assay in RAW 264.7 macrophages; assay type: cell-based, Leishmania major; details: Leishmania major, RAW264.7; intracellular amastigotes in RAW 264.7 macrophages, 96 h
# How it was run: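 Murine RAW 264.7 macrophages were infected overnight with luciferase-expressing L. major metacyclic promastigotes (MOI 1:10). Non-internalized parasites were washed off before 96 h compound exposure (0.5–10,000 ng/mL) at 37°C, 5% CO2.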
# [2] = Rat hepatocyte intrinsic clearance; assay type: in vitro ADME; details: hepatocytes
# [3] = test system: T. vivax STIB 719 / ILRAD 560; test: Ex vivo drug sensitivity assay for T. vivax (48 h); assay type: cell-based; details: Trypanosoma vivax, STIB719, 48 h
# Procedure: Ex vivo drug sensitivity assay for T. vivax (48 h): Compounds were tested ex vivo against the STIB 719 / ILRAD 560 T. vivax (drug sensitive) strain which originated from the Y486 strain, isolated from a naturally infected bovine in 1976 in Zaria, Nigeria. Compounds were assayed in at least three separate, independent experiments and an 11-point dilution curve was used to determine the EC50 values. Bloodstream form trypanosomes were harvested from a highly parasitaemic mouse (via cardiac puncture) and were incubated with test compounds for 45 h at 37°C in a humidified atmosphere containing 5% CO2, supported in HMI-9 medium containing 20% bovine serum. Thereafter, Resazurin dye was added to monitor trypanosome viability as described in the preceding section.
# [4] = test system: T. cruzi amastigote (Tulahuen strain expressing β-galactosidase); test: Intracellular T. cruzi assay in 3T3 cells (beta-galactosidase, 96 h); assay type: cell-based, Trypanosoma cruzi; details: for EC50: Trypanosoma cruzi, TULAHUEN, NIH3T3, 96 h, read-out: T. cruzi amastigote EC50
# How it was run: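 3T3 cells in phenol-red-free DMEM with 2% FBS were infected with Tulahuen β-galactosidase trypomastigotes, 5×10^4 per well, and exposed to compounds from 50 μM in 1:2 serial dilutions, in triplicate. After 96 h at 37°C, 5% CO2, 500 μM CPRG in PBS with 0.5% NP40 was added for 4 h; absorbance was read at 590–595 nm.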
SMILES,Human Liver Microsome CLint [1] [µL/min/mg],"Parasitemia vs control group (T. brucei brucei CA427; p.o. once daily 60 mg/kg days 1-3, then 70 mg/kg, by day 5, vehicle 10% NMP 90% PEG)","Toxicity in infected mice (T. brucei brucei CA427; p.o. once daily 60 mg/kg, first three days)",solubility (Aqueous solubility) [µM],LogD7.4 (LogD7.4),EC50 (L. major amastigote) [µM],hepatocyte CLint [2] [µL/min/1e6 cells],EC50 [3] [µM],EC50 [4] [µM],microsomal CLint ([1]; liver microsomes) [µL/min/mg],Toxicity in infected mice (T. brucei brucei CA427; 25 mg/kg i.p.),"Mice showing 10-fold reduction in parasitemia (T. brucei brucei CA427; 25 mg/kg i.p., n = 4) [%]","Mice with no detectable parasitemia (T. brucei brucei CA427; 25 mg/kg i.p., n = 4)","Reduction in parasitemia (T. brucei brucei CA427; 25 mg/kg i.p., vs DMSO vehicle) [fold]",logD (LogD7.4),SI (T. cruzi) ([4]; selectivity index calculated relative to 3T3 cells)
CN1CCN(c2ncc(-c3ccc4c(Nc5cnccn5)ccnc4c3)cn2)CC1 [Compound 22],180,no statistically significant difference; also recorded: failed to affect parasitemia,no signs of toxicity,44,3.3,2.5,130,0.72,6,,,,,,,
CN1CCN(c2ncc(-c3ccc4c(Nc5ccc(OCc6cccc(F)c6)c(Cl)c5)ccnc4c3)cn2)CC1 [Compound 14],,,,< 1,,1.5,24,0.2,0.09,54,no evidence of toxicity,75,one had no detectable parasitemia,10,3.4,170
